Reference: ChEMBL document CHEMBL4184150, “Microcystins: Synthesis and structure-activity relationship studies toward PP1 and PP2A” (Bioorg Med Chem, 2018)

Legend:
[1] = molecular target: Serine/threonine-protein phosphatase PP1-alpha catalytic subunit (Homo sapiens, UniProt P62136); experiment: Inhibition of recombinant PP1alpha catalytic subunit (unknown origin) using DIFMUP as substrate pretreated for 10 mins followed by substrate addition measured every 15 secs for 30 mins by fluorescence assay
[2] = molecular target: Serine/threonine-protein phosphatase 2A catalytic subunit alpha isoform (Homo sapiens, UniProt P67775); experiment: Inhibition of recombinant human PP2A catalytic subunit L309 deletion mutant using DIFMUP as substrate pretreated for 10 mins followed by substrate addition measured every 15 secs for 30 mins by fluorescence assay
Oryctolagus cuniculus = species on record: Oryctolagus cuniculus; experiment: Selectivity ratio of IC50 for rabbit skeletal muscle PP2A catalytic subunit to IC50 for rabbit skeletal muscle PP1 catalytic subunit
[3] = Inhibition of rabbit skeletal muscle PP2A catalytic subunit using [32P]-phosphorylase alpha as substrate pretreated for 10 mins followed by substrate addition; design: species or system Oryctolagus cuniculus
[4] = Inhibition of rabbit skeletal muscle PP1 catalytic subunit using [32P]-phosphorylase alpha as substrate pretreated for 10 mins followed by substrate addition; design: species or system Oryctolagus cuniculus

Chain of Serine/threonine-protein phosphatase PP1-alpha catalytic subunit (P62136 whole entry, canonical isoform): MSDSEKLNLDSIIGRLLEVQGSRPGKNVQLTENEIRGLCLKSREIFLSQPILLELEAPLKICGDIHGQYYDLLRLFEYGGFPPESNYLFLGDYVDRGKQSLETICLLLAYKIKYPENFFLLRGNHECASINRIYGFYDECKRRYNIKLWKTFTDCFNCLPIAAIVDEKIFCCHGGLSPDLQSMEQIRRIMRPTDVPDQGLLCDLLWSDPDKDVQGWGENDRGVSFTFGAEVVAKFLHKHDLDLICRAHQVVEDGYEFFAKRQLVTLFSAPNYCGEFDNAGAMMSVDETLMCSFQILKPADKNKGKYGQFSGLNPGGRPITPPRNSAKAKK
Chain of Serine/threonine-protein phosphatase 2A catalytic subunit alpha isoform (P67775 whole entry, looked up, canonical isoform): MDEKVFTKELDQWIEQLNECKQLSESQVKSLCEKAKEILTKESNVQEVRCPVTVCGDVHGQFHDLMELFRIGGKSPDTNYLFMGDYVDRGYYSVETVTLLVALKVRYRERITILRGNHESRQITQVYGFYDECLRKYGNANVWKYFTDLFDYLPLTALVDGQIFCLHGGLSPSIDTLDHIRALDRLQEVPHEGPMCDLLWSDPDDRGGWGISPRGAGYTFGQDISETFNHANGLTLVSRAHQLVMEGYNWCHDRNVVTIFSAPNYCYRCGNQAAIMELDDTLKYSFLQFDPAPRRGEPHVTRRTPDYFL

Row | Structure (SMILES) | IC50 [1] [nM] | IC50 [2] [nM] | Ratio IC50 (Oryctolagus cuniculus) | IC50 [3] [nM] | IC50 [4] [nM]
1 | CC(C)C[C@@H]1NC(=O)[C@@H](C)NC(=O)CN(C)C(=O)CC[C@H](C(=O)O)NC(=O)[C@@H](C)[C@H](C)NC(=O)[C@H](Cc2ccccc2)NC(=O)C[C@H](C(=O)O)NC1=O | 254000 | 900 | – | – | –
2 | C=C1C(=O)N[C@H](C)C(=O)N[C@@H](CC2CCCCC2)C(=O)N[C@@H](C(=O)O)[C@H](C)C(=O)N[C@@H](C)C(=O)N[C@@H](/C=C/C(C)=C/[C@H](C)[C@H](Cc2ccccc2)OC)[C@H](C)C(=O)N[C@@H](C(=O)O)CCC(=O)N1C | – | – | 7 | 3.4 | 0.52
